For assay [1], the system named is KOPN8. As to the kind of experiment: Cell growth inhibitory activity evaluation, KOPN8. The format is cell-based. On the procedure:
(§1) Cell Growth Inhibitory Activity Evaluation
(§2) Cells were purchased from ATCC (G401 (human kidney-derived rhabdoid tumor), HepG2, LNCaP, LS180, MV4; 11, NCI-H1563, NCI-H1703, NCI-H520, NCI-H522, NCI-N87, RS4; 11, and THP-1), Deutsche Sammlung von Mikroorganismen und Zellkulturen GmbH (DSMZ) (KARPAS-422 (EZH2 Y641N mutant human diffuse large B-cell lymphoma) and KOPN8), and Health Science Research Resource Bank (OVMANA). […] Then, the luminescence intensity of each well was measured using a plate reader (EnVision, PerkinElmer, Inc.). The extent of cell growth inhibition was calculated from the luminescence intensity of a sample-supplemented group (Ts) and a DMSO-supplemented group (Cs) measured on the inoculation date and a sample-supplemented group (T) and a DMSO-supplemented group (C) measured on the effect determination date according to the following expression: Extent of cell growth inhibition (%)={1−(T−Ts)/(C−Cs)}×100
(§3) When the number of cells in the sample-supplemented group is decreased on the determination date compared with the inoculation date (T<Ts), a cytocidal effect was calculated according to the following expression: Cytocidal rate (%)=(T−Ts)/Ts×(−100)

Assay [2] has as its system KARPAS-422 (EZH2 Y641N mutant human diffuse large B-cell lymphoma). As to the kind of experiment: Cell growth inhibitory activity evaluation, KARPAS-422. The format is cell-based. Particulars: KARPAS-422 (Lymphoma). How it is done: as §1, §2, §3
Assay [3] concerns HepG2. In words: Cell growth inhibitory activity evaluation, HepG2. The assay is classed as cell-based. Particulars: Homo sapiens, HepG2 (Liver cancer), read-out: Extent of cell growth inhibition. How it is done:
as §1, §2, §3

Assay [4] concerns SNF5 deletion mutant human kidney-derived rhabdoid tumor G401-subcutaneously transplanted model. In words: Antitumor activity, G401-subcutaneously transplanted model. The format is in vivo, female BALB/c-nu/nu mice. Particulars: oral, QD × 12, 36 days after grouping. An excerpt: Evaluation of Antitumor Activity Against SNF5 Deletion Mutant Human Kidney-Derived Rhabdoid Tumor G401-Subcutaneously Transplanted Model
SNF5 deletion mutant human kidney-derived rhabdoid tumor G401 cells were subcutaneously transplanted in an amount of 1×10^7 cells/head to the right abdomens of female BALB/c-nu/nu mice. After 23 days, the mice were grouped on the basis of their presumed tumor volumes and body weights. The G401 cells were purchased from ATCC. […] The tumor volume of each individual was measured from the grouping date to 36 days thereafter (test completion date).

Assay [5] has as its system RS4;11. As to the kind of experiment: Cell growth inhibitory activity evaluation, RS4;11. The format is cell-based. The following applies: RS4;11 (Leukemia). How it is done:
as §1, §2, §3

Assay [6] deals with THP-1. As to the kind of experiment: Cell growth inhibitory activity evaluation, THP-1. The format is cell-based. Particulars: THP-1 (Leukemia). How it is done:
as §1, §2, §3

Assay [7] deals with NCI-H1703. In words: Cell growth inhibitory activity evaluation, NCI-H1703. The assay is classed as cell-based. The following applies: NCI-H1703 (Lung cancer). On the procedure:
as §1, §2, §3

Assay [8] has as its system LS180. As to the kind of experiment: Cell growth inhibitory activity evaluation, LS180. The assay is classed as cell-based, human. The following applies: LS180 (Colorectal cancer). On the procedure: as §1, §2, §3
Assay [9] concerns G401 (human kidney-derived rhabdoid tumor). As to the kind of experiment: Cell growth inhibitory activity evaluation, G401. The format is cell-based. How it is done: as §1, §2, §3
The test system of assay [10] is NCI-N87. In words: Cell growth inhibitory activity evaluation, NCI-N87. The format is cell-based, human. The following applies: NCI-N87 (Stomach cancer). How it is done:
as §1, §2, §3

Assay [11] concerns NCI-H520. As to the kind of experiment: Cell growth inhibitory activity evaluation, NCI-H520. The assay is classed as cell-based. Particulars: Homo sapiens, NCI-H520 (Lung cancer), read-out: Extent of cell growth inhibition. On the procedure: as §1, §2, §3
Assay [12] deals with EZH2 Y641N mutant human diffuse large B-cell lymphoma KARPAS-422-subcutaneously transplanted model. In words: Antitumor activity, KARPAS-422-subcutaneously transplanted model. Particulars: oral, QD × 14, 45 days after grouping. The assay is classed as in vivo, female SCID mice. An excerpt: Evaluation of Antitumor Activity Against EZH2 Y641N Mutant Human Diffuse Large B-Cell Lymphoma KARPAS-422-Subcutaneously Transplanted Model
EZH2 Y641N mutant human diffuse large B-cell lymphoma KARPAS-422 cells were subcutaneously transplanted in an amount of 2×10^7 cells/head to the right abdomens of female SCID mice. After 30 days, the mice were grouped on the basis of their presumed tumor volumes (major axis×minor axis×minor axis/2) and body weights. The KARPAS-422 cells were purchased from DSMZ. […] The tumor volume of each individual was measured from the grouping date to 45 days thereafter (test completion date).

Assay [13] relates to MV4;11. In words: Cell growth inhibitory activity evaluation, MV4;11. Particulars: MV4;11 (Leukemia). The assay is classed as cell-based. How it is done: as §1, §2, §3
In assay [14] the test system is NCI-H522. As to the kind of experiment: Cell growth inhibitory activity evaluation, NCI-H522. The assay is classed as cell-based. The following applies: NCI-H522 (Lung cancer). How it is done: as §1, §2, §3
The test system of assay [15] is LNCaP. As to the kind of experiment: Cell growth inhibitory activity evaluation, LNCaP. The assay is classed as cell-based. The following applies: LNCaP (Prostate cancer). How it is done: as §1, §2, §3
For assay [16], the system named is NCI-H1563. In words: Cell growth inhibitory activity evaluation, NCI-H1563. The format is cell-based. The following applies: Homo sapiens, NCI-H1563 (Lung cancer), read-out: Extent of cell growth inhibition. How it is done:
as §1, §2, §3

Assay [17] deals with OVMANA. As to the kind of experiment: Cell growth inhibitory activity evaluation, OVMANA. Particulars: OVMANA (Ovarian cancer), read-out: Extent of cell growth inhibition. The format is cell-based. How it is done: as §1, §2, §3
Assay [18] relates to human colorectal cancer LS180-subcutaneously transplanted model. As to the kind of experiment: Antitumor activity, LS180-subcutaneously transplanted model. The format is in vivo, female SCID mice. The following applies: oral, BID × 13, 17 days after grouping. How it is done:
Evaluation of Antitumor Activity Against Human Colorectal Cancer LS180-Subcutaneously Transplanted Model
Human colorectal cancer LS180 cells were subcutaneously transplanted in an amount of 5×10^6 cells/head to the right abdomens of female SCID mice. After 3 days, the mice were grouped on the basis of their presumed tumor volumes and body weights. The LS180 cells were purchased from ATCC. […] The tumor volume of each individual was measured from the grouping date to 17 days thereafter (test completion date).

Assay [19] concerns human stomach cancer NCI-N87-subcutaneously transplanted model. As to the kind of experiment: Antitumor activity, NCI-N87-subcutaneously transplanted model. Particulars: oral, QD × 28, 82 days after grouping. The format is in vivo, female BALB/c-nu/nu mice. How it is done:
Evaluation of Antitumor Activity Against Human Stomach Cancer NCI-N87-Subcutaneously Transplanted Model
Human stomach cancer NCI-N87 cells were subcutaneously transplanted in an amount of 8×10^6 cells/head to the right abdomens of female BALB/c-nu/nu mice. After 12 days, the mice were grouped on the basis of their presumed tumor volumes and body weights. The NCI-N87 cells were purchased from ATCC. […] The tumor volume of each individual was measured from the grouping date to 82 days thereafter (test completion date).

Setting [20] is: Homo sapiens, read-out: Extent of cell growth inhibition.

A value given as a limit tells only on which side of the number the result lay.

For the compound `Cc1cc(C)c(CNC(=O)c2cc(Br)c3c(c2C)OC(C)([C@H]2CC[C@H](N(C)C)CC2)O3)c(=O)[nH]1` (relative stereo) [Example 14, 7-Bromo-2-[trans-4-(dimethylamino)cyclohexyl]-N-[(4,6-dimethyl-2-oxo-1,2-dihydropyridin-3-yl)methyl]-2,4-dimethyl-1,3-benzodioxole-5-carboxamide], the inhibition at 1 µM in [1] (Homo sapiens, KOPN-8, KOPN8 (Leukemia), read-out: Extent of cell growth inhibition) was over 100%; in assay [2] (setting [20]), over 100%; in assay [3], 78%; in assay [5] (setting [20]), over 100%; in assay [6] (setting [20]), over 100%; in [7] (setting [20]) it was over 100%. Besides, the inhibition at 1 µM in [8] (setting [20]) was over 100%; in assay [9] (Homo sapiens, G-401, read-out: Extent of cell growth inhibition), over 100%; in [10] (setting [20]), over 100%; in [11] it was 80%; in assay [13] (setting [20]) it was over 100%; in assay [14] (setting [20]), over 100%. Besides, the inhibition at 1 µM was over 100% in assay [15] (setting [20]), 56% in assay [16] and 95% in assay [17]. In addition, the Cytocidal rate is reported as 99% in assay [1] (KOPN8 (Leukemia), 1 uM); 100% in assay [2] (1 uM); 94% in assay [5] (1 uM); 7% in assay [6] (1 uM); 49% in assay [7] (1 uM); 6% in assay [8] (1 uM). The Cytocidal rate came to 100% in assay [9] (1 uM); 15% in assay [10] (1 uM); 88% in [13] (1 uM); 13% in assay [14] (1 uM); 6% in assay [15] (1 uM). For the same compound, the “Extent of tumor growth inhibition” value in assay [4] (G401, 50 mg/kg) is given as over 100%; in assay [4] (G401, 200 mg/kg) it was over 100%; in [12] (KARPAS-422, 5 mg/kg), 26%; in assay [12] (KARPAS-422, 25 mg/kg), 80%; in assay [12] (KARPAS-422, 200 mg/kg), over 100%. Also, the “Extent of tumor regression” value in assay [4] (G401, 50 mg/kg) was found to be 19%; in assay [4] (G401, 200 mg/kg), 29%; in assay [12] (KARPAS-422, 200 mg/kg) it was 50%.

Regarding `Cc1cc(C)c(CNC(=O)c2cc(Cl)c3c(c2C)OC(C)([C@H]2CC[C@H](N(C)C)CC2)O3)c(=O)[nH]1` (relative stereo) [Example 34, 7-Chloro-2-[trans-4-(dimethylamino)cyclohexyl]-N-[(4,6-dimethyl-2-oxo-1,2-dihydropyridin-3-yl)methyl]-2,4-dimethyl-1,3-benzodioxole-5-carboxamide], the “Extent of tumor growth inhibition” value in [4] (G401, 50 mg/kg) is recorded as over 100%; in [4] (G401, 200 mg/kg), over 100%; in [18] (LS180, 50 mg/kg), 8%; in assay [18] (LS180, 200 mg/kg) it was 73%; in [12] (KARPAS-422, 5 mg/kg) it was 44%; in [12] (KARPAS-422, 25 mg/kg), 76%. For the same compound, the “Extent of tumor growth inhibition” value in assay [12] (KARPAS-422, 200 mg/kg) is over 100%; in [19] (NCI-N87, 50 mg/kg) it was 80%; in assay [19] (NCI-N87, 200 mg/kg), 87%. The “Extent of tumor regression” value in [4] (G401, 50 mg/kg) turned out to be 22%; in assay [4] (G401, 200 mg/kg), 17%; in assay [12] (KARPAS-422, 200 mg/kg), 52%.

Source of the values: US10954219B2, “1,3-benzodioxole derivative” (DAIICHI SANKYO COMPANY, LIMITED, priority 2014, dated 2021).
